Results on three compounds are retold here after US20220096461A1, “LIQUID ORAL DOSAGE FORMULATIONS OF METHYLNALTREXONE” (Bausch Health Ireland Limited, priority 2019, published 2022).

The nature of data set [1]: Partition coefficient between octanol and water (Log P). The class given is physicochemical. The note with it: n-octanol/water; ratios 9:1, 7:3, 1:1; HPLC. The procedure: To determine the partition coefficient of each ion pair, about 15 mg of each ion pair was dissolved in separate 100 ml portions of n-octanol (previously saturated with water). Three n-octanol solutions were prepared for each ion pair. Mixtures having three different volumetric ratios of n-octanol to water (9:1, 7:3, and 1:1) were prepared by adding water and agitating the mixtures on a bench top agitator for two hours. After agitation, samples from each mixture were centrifuged for 10 min at 10,000 rpm to separate aqueous and n-octanol phase. The concentration of methylnaltrexone in the aqueous and n-octanol phases was determined by HPLC. Log P was calculated from the ratio of the drug concentration in n-octanol to the drug concentration in water.

Data set [2] relates to opioid-induced constipation. The note with it: 12 mg subcutaneous injection; patients with chronic non-cancer pain; cited from earlier work.

By LogP is commonly meant a log measure of how a compound divides between an organic and an aqueous phase.

As for `CCCCC(CC)COC(=O)CC(C(=O)OCC(CC)CCCC)S(=O)(=O)[O-].C[N+]1(CC2CC2)CCC23c4c5ccc(O)c4OC2C(=O)CCC3(O)C1C5` (stereo not drawn) [Methylnaltrexone - Docusate], the log partition coefficient (LogP) in data set [1] is listed as 1.67.
With `C[N@+]1(CC2CC2)CC[C@]23c4c5ccc(O)c4O[C@H]2C(=O)CC[C@@]3(O)[C@H]1C5` [methylnaltrexone, (R)—N-methylnaltrexone], in data set [2], the “Patients with three or more spontaneous bowel movements each week for four weeks” value is listed as 59%.
Take Methylnaltrexone - Lauryl Sulfate: the lipophilicity (LogP) in data set [1] is 1.23.
